# Assay results reported in PubChem BioAssay AID1963965 (Molecular Pharmacology Branch, DTP, NCI, 2024).
# Tested on: 996289-038-R-J1-PDC spheroid viability
# Experiment: Anticancer human tumor 996289-038-R-J1-PDC patient-derived colon adenocarcinoma cell line growth inhibition [PI3K]
# Conditions: spheroids with HUVEC and MSC; for IC50: curve of first compound; for viability, T/C: stronger effect = lower value
# How it was run: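 Multi-cell spheroids combine tumor cells with HUVEC and human MSCs, treated with targeted agents alone or with inavolisib, alpelisib, duvelisib or copanlisib. Concentrations fall in half-log steps from at or near clinical Cmax, or from 10 microM where Cmax is unknown; viability read-out.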
# [1] = second compound 0.00316 µM, first compound 0.0316 µM
# [2] = second compound 0.00316 µM, first compound 0.1 µM
# [3] = second compound 0.00316 µM, first compound 0.316 µM
# [4] = second compound 0.00316 µM, first compound 1 µM
# [5] = second compound 0.00316 µM, first compound 3.16 µM
# [6] = second compound 0.00316 µM, first compound 10 µM
# [7] = second compound 0.01 µM, first compound 0.0316 µM
# [8] = second compound 0.01 µM, first compound 0.1 µM
# [9] = second compound 0.01 µM, first compound 0.316 µM
# [10] = second compound 0.01 µM, first compound 1 µM
# [11] = second compound 0.01 µM, first compound 3.16 µM
# [12] = second compound 0.01 µM, first compound 10 µM
# [13] = second compound 0.0316 µM, first compound 0.0316 µM
# [14] = second compound 0.0316 µM, first compound 0.1 µM
# [15] = second compound 0.0316 µM, first compound 0.316 µM
# [16] = second compound 0.0316 µM, first compound 1 µM
# [17] = second compound 0.0316 µM, first compound 3.16 µM
# [18] = second compound 0.0316 µM, first compound 10 µM
# [19] = second compound 0.1 µM, first compound 0.0316 µM
# [20] = second compound 0.1 µM, first compound 0.1 µM
# [21] = second compound 0.1 µM, first compound 0.316 µM
# [22] = second compound 0.1 µM, first compound 1 µM
# [23] = second compound 0.1 µM, first compound 3.16 µM
# [24] = second compound 0.1 µM, first compound 10 µM
# [25] = second compound 0.316 µM, first compound 0.0316 µM
# [26] = second compound 0.316 µM, first compound 0.1 µM
# [27] = second compound 0.316 µM, first compound 0.316 µM
# [28] = second compound 0.316 µM, first compound 1 µM
# [29] = second compound 0.316 µM, first compound 3.16 µM
# [30] = second compound 0.316 µM, first compound 10 µM
# [31] = second compound 1 µM, first compound 0.0316 µM
# [32] = second compound 1 µM, first compound 0.1 µM
# [33] = second compound 1 µM, first compound 0.316 µM
# [34] = second compound 1 µM, first compound 1 µM
# [35] = second compound 1 µM, first compound 3.16 µM
# [36] = second compound 1 µM, first compound 10 µM
# 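Further: spheroids exposed to compounds for seven days before viability read.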
# 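Wherever viability, T/C is given: luminescence used as a proxy for viable cell amount; percent viability relative to DMSO vehicle control as 100%.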
structure (smiles),measurement,setting,value
CC1(C)CCC(CN2CCN(c3ccc(C(=O)NS(=O)(=O)c4ccc(NCC5CCOCC5)c([N+](=O)[O-])c4)c(Oc4cnc5[nH]ccc5c4)c3)CC2)=C(c2ccc(Cl)cc2)C1 + COc1c(OCCCN2CCOCC2)ccc2c3n(c(=NC(=O)c4cnc(N)nc4)nc12)CCN3,IC50,second compound 0.00316 µM,7.54 µM
same,IC50,second compound 0.01 µM,7.76 µM
same,IC50,second compound 0.0316 µM,5.77 µM
same,IC50,second compound 0.1 µM,4.2 µM
same,IC50,second compound 0.316 µM,< 0.0316 µM
same,IC50,second compound 1 µM,< 0.0316 µM
same,"viability, T/C",[1],88.5%
same,"viability, T/C",[2],97.1%
same,"viability, T/C",[3],94.2%
same,"viability, T/C",[4],110%
same,"viability, T/C",[5],106%
same,"viability, T/C",[6],34%
same,"viability, T/C",[7],95.6%
same,"viability, T/C",[8],88.6%
same,"viability, T/C",[9],84.2%
same,"viability, T/C",[10],97.7%
same,"viability, T/C",[11],103%
same,"viability, T/C",[12],37.6%
same,"viability, T/C",[13],81.3%
same,"viability, T/C",[14],84.2%
same,"viability, T/C",[15],72.9%
same,"viability, T/C",[16],86.1%
same,"viability, T/C",[17],90.5%
same,"viability, T/C",[18],19.7%
same,"viability, T/C",[19],65%
same,"viability, T/C",[20],62.5%
same,"viability, T/C",[21],62.8%
same,"viability, T/C",[22],59.5%
same,"viability, T/C",[23],65.2%
same,"viability, T/C",[24],10.3%
same,"viability, T/C",[25],40.4%
same,"viability, T/C",[26],36.2%
same,"viability, T/C",[27],33.9%
same,"viability, T/C",[28],36.9%
same,"viability, T/C",[29],38.6%
same,"viability, T/C",[30],11.3%
same,"viability, T/C",[31],19.5%
same,"viability, T/C",[32],19.5%
same,"viability, T/C",[33],21.1%
same,"viability, T/C",[34],23.3%
same,"viability, T/C",[35],18.8%
same,"viability, T/C",[36],6.87%
C[C@@H](NC(=O)c1ncnc(N)c1Cl)c1ncc(C(=O)Nc2cc(C(F)(F)F)c(Cl)cn2)s1 + COc1c(OCCCN2CCOCC2)ccc2c3n(c(=NC(=O)c4cnc(N)nc4)nc12)CCN3,IC50,second compound 0.00316 µM,> 10 µM
same,IC50,second compound 0.01 µM,> 10 µM
same,IC50,second compound 0.0316 µM,> 10 µM
same,IC50,second compound 0.1 µM,> 10 µM
same,IC50,second compound 0.316 µM,< 0.0316 µM
same,IC50,second compound 1 µM,< 0.0316 µM
same,"viability, T/C",[1],89.7%
same,"viability, T/C",[2],88%
same,"viability, T/C",[3],95.1%
same,"viability, T/C",[4],112%
same,"viability, T/C",[5],131%
same,"viability, T/C",[6],136%
same,"viability, T/C",[7],96.6%
same,"viability, T/C",[8],87%
same,"viability, T/C",[9],96.2%
same,"viability, T/C",[10],116%
same,"viability, T/C",[11],98%
same,"viability, T/C",[12],109%
same,"viability, T/C",[13],94.3%
same,"viability, T/C",[14],78.9%
same,"viability, T/C",[15],86.7%
same,"viability, T/C",[16],81.9%
same,"viability, T/C",[17],92.7%
same,"viability, T/C",[18],77.8%
same,"viability, T/C",[19],68.7%
same,"viability, T/C",[20],57.1%
same,"viability, T/C",[21],69.2%
same,"viability, T/C",[22],67.7%
same,"viability, T/C",[23],71.3%
same,"viability, T/C",[24],58.7%
same,"viability, T/C",[25],42%
same,"viability, T/C",[26],36.2%
same,"viability, T/C",[27],35.7%
same,"viability, T/C",[28],52.9%
same,"viability, T/C",[29],43.3%
same,"viability, T/C",[30],37.3%
same,"viability, T/C",[31],22.3%
same,"viability, T/C",[32],16.1%
same,"viability, T/C",[33],19.3%
same,"viability, T/C",[34],21.7%
same,"viability, T/C",[35],29%
same,"viability, T/C",[36],22.6%
